How the values were obtained:
DU145 cell line [1] = assay: Apoptotic indices by DAPI staining, confocal microscopy; type: cell-based, human; settings: DU145, 24, 48 and 72 h
Experimental: The Annexin-V-FLUOS Staining Kit (Roche Diagnostics GmbH, Mannheim, Germany) was used for the detection and quantification of the apoptotic cells. This kit uses a dual-staining protocol in which the apoptotic cells are stained with annexin-V (green fluorescence) and the necrotic cells are stained with propidium iodide (PI, red fluorescence). Briefly, DU145 cell line was grown at a density of 1×10^6 cells in triplicate culture plates and then treated with D-allose (0, 20 and 40 mM) for 48 and 72 h. The cells were treated with trypsin and harvested with PBS and processed for labeling with annexin-V and PI by the use of the kit according to the manufacturer's protocol. The fluorescence was measured by flow cytometric analysis, performed on a FACSCalibur (Becton Dickinson, San Jose, Calif., USA) using 488 nm excitation and a 515 nm band pass filter for fluorescein detection and a filter [600 nm for PI detection (FL1: Annexin-V-FLUOS; FL2: PI). Further, apoptotic indices were measured by analysis of fragmented or scattered nuclei and condensed chromosome as the stringent morphological criteria of apoptosis, detectable by confocal microscopy on cells stained with DNA-intercalating dye […] (DAPI). For this purpose, DU145 and PrEC cell lines were exposed to 0, 20 and 40 mM of D-allose for up to 72 h, stained with DAPI (1 μg/ml in methanol), mounted with Prolong Antifade reagent (Molecular Probes, Eugene, Oreg., USA), and images were acquired by use of a confocal laser scanning microscope (Fluoview FV 1000, Olympus, Japan). The numbers of apoptotic nuclei per 100 cells were counted from the five high power fields/slide and apoptotic indices were expressed as a percentage of the untreated controls in each cell line, considering the value as 100%. DU145 cell line was also treated with 0-40 mM of D-glucose for determination of apoptotic indices as mentioned above.

DU145 cell line [2] = assay: Cell viability / cell growth, MTT assay; type: cell-based, human; settings: DU145, 0-40 mM, compared to control
Experimental: DU145 (human HRPC cell line, derived from a patient with brain metastasis) and PrEC (human normal prostate epithelial cell line) cell lines were obtained from Korea Cell Line Bank (KCLB, Seoul, South Korea). DU145 and PrEC cell lines were grown in triplicate culture plates containing RPMI-1640 (HyClone, Logan, Utah, USA) and Dulbecco's Modified Eagle's Medium (HyClone, Logan, Utah, USA) respectively, and kept in a humidified atmosphere containing 5% CO2 at 37° C. for 72 h. The media were supplemented with 10% heat-inactivated fetal bovine serum (HyClone, Logan, Utah, USA), 1% antibio-antimicotic solution containing 10,000 units/ml of penicillin and 10 mg/ml of streptomycin (HyClone, Logan, Utah, USA), HEPES, sodium bicarbonate, p-aminobenzoic acid and insulin (complete culture media). D-Allose was purchased from Sigma (St. Louis, Mo., USA) and dissolved at a concentration of 1 M in sterile phosphate-buffered saline (PBS), and was further sterilized by filtration. To examine the dose- and time-dependent effects, the cell lines (70-80% confluent) were treated with 0-40 mM of D-allose for up to 72 h, whereas without D-allose treated cell lines (0 mM) were considered as control. DU145 cell line was also treated with 0-40 mM of D-glucose. All the other chemicals used in the work were procured from Sigma (St. Louis, Mo., USA), unless otherwise specified.
The logarithmic growth phase of DU145 and PrEC cell lines were taken for growth assay using 3-[4,5-dimethylthiazol-2-yl]-2,5-diphenyl tetrazolium bromide (MTT). […] After incubation for the specified time at 37° C. in a humidified 5% CO2 incubator, cell viability was determined. […] To achieve solubilization of formazan crystal formed in viable cells, DMSO was added to each well, and the absorbance was recorded on a microplate reader at 595 nm wavelength. The effect of sugars on growth inhibition was assessed as percent cell viability where control cells were taken as 100% viable.

O=C[C@H](O)[C@@H](O)[C@H](O)[C@H](O)CO [D-glucose, reference compound]
programmed cell death (apoptotic indices, DAPI staining) (DU145 cell line [1]): no remarkable effect | cell growth (MTT assay) (DU145 cell line [2]): significant increase of cell growth in a dose-dependent manner
